Experimental data published in PMC11117721, “A Fast-Binding, Functionally Reversible, COX-2 Radiotracer for CNS PET Imaging” (ACS Central Science, 2024).

Molecular target: T1, COX-2 (Homo sapiens, UniProt P35354)
T1 sequence (P35354 18-604): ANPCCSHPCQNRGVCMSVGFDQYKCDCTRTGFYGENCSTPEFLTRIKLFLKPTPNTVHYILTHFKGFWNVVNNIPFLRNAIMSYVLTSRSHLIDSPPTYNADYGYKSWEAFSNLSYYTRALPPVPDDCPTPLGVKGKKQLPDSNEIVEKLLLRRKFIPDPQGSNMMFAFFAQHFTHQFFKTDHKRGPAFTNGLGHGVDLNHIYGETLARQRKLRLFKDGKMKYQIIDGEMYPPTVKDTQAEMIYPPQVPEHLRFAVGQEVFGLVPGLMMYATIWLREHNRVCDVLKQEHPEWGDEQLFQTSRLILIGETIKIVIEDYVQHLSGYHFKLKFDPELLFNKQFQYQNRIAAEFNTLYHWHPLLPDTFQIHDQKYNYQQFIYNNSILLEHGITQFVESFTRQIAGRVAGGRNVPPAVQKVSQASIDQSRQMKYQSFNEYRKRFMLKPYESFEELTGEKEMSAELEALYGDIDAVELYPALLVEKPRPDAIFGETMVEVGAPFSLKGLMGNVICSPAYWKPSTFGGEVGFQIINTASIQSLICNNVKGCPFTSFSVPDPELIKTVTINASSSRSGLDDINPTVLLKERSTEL
Experiment: PET imaging of h-Thy1 COX-2 transgenic mice
Assay type: in vivo, mouse
Set-up: FLAG; P2A linker remnant (GFP cassette co-expressed, separated by P2A); host or cells: rat striatal (caudate putamen) neurons transduced in vivo with AAV2, human synapsin promoter
Details: for SUV Average (9–21 min): h-Thy1 COX-2 mice (n = 5)
Text: We performed additional validation of [^11C]BRD1158 through in vivo PET imaging of an hCOX-2 transgenic mouse line (Figure 3), which overexpressed human COX-2 primarily in neurons (Strain No. 010703, Jackson Laboratories). […] While we did perform contralateral sham (control virus) injections in the AAV rats to assess potential injection confounds, as COX-2 is part of the injury and inflammation response, it was important to validate in a model naïve to brain insult to mitigate how aspects of the AAV rat experimental design could have misled our interpretations of tracer specific binding.
In accordance with Massachusetts General Hospital Institutional Animal Care and Use Committee (IACUC) protocols, Sprague Dawley rats (300-500g, Charles River Laboratories), wildtype mice (Strain C57BL/6J), and human Thy-1-COX-2 transgenic line 303 mice (Strain 010703, Jackson Laboratories) were used in these studies. All animals were housed in a standard animal facility with access to conventional rodent food and water ad libitum and a 12 -hour day/night schedule. All animals were allowed to acclimate before any experime ntal procedures. Only male animals were used for imaging experiments .
Animals were induced under anesthesia using 1 -3% isoflurane in a carrier of 1.0 -1.5 L/min oxygen.
Maintenance of isoflurane depended on procedure and species, rats 2 -3% and mice 1-2%. Rats undergoing surgeries had higher isoflurane maintenance at 3 -4%. After induction, the animals’ body temperatures were regulated using a support heating pad or fan throughout all experiments.
Respiratory rates and body temperature were monitored through all imaging and surgical procedures, generally using a respiratory pad and rectal probe. Injections were made through the lateral tail vein.
Rats were cannulated with an IV extension using a 60 in, 0.3 mL volume IV extender (Smith Medical) and a 24 ga x 0.75 in IV catheter (McKesson). Mice were cannulated with Intramedic PE10 tubing (BD […]
Group 2 animals then […]
received one 4µL ICV injection of AAV2-GFP-hCOX2 to the Rcpu and one 4µL ICV injection of AAV2-GFP to the Lcpu, an injection paradigm that successfully led to robust, localized, unilateral COX -2 expression that we could use to compare radiotracers (Figure 2, SI Figure 8). Another rat (animal ID SD2006080) received one 4µL ICV injection of AAV2-GFP-hCOX2 to the Rcpu and no left caudate sham injection (SI
Figure 9). All surgical procedures were performed aseptically. Once rats were prepared and secured with a stereotaxic device (Stoelting Co, Wood Dale, IL), bregma was located. […]
A 33 -gauge neuro syringe (Hamilton, Reno, NV) was inserted around DV 3.5 mm for one injection. I njections were given slowly and the needle was kept in for 15 min to allow for adequate perfusion. […]

SUV Average (9–21 min) (cerebellum): 1.84 ± 0.56
SUV Average (9–21 min) (cortex): 1.68 ± 0.50
SUV Average (9–21 min) (striatum): 1.95 ± 0.55
time to significant signal differentiation from wild-type controls (hCOX-2 transgenic mice): 10 to 20 min
SMILES: [11CH3]S(=O)(=O)c1ccc(-c2cccc(NCc3ccoc3)n2)cc1 [[^11C]BRD1158]
